# Reference: paper PMC6979384, “Characterization of the plant homeodomain (PHD) reader family for their histone tail interactions” (Epigenetics & Chromatin, 2020)
# Where no end group is shown, it is not given here. [ ]: non-standard residue; d: D form. Me3 = trimethyl (on lysine side chain); Lys(Me) = CNCCCC[C@H](N)C(=O)O
# Legend:
# Experiment in all cases: Histone peptide microarray
# Type in all cases: binding, human
# Conditions in all cases: sheet "Array Heatmap"
# [1] = system: AIRE (PP)
# Outline: (§1)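 A peptide microarray holding 293 synthetic histone peptides with individual or combinatorial modifications was probed with each GST-PHD protein at 0.5 μM. Values represent mean intensity (±SD) from four replicates.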
# [2] = system: ING3
# Outline: as §1
# [3] = system: PHF2
# Outline: as §1
# [4] = system: DPF2 (PPC2W2)
# Outline: as §1
# [5] = system: BAZ2B
# Outline: as §1
# [6] = system: SP140L
# Outline: as §1
# [7] = system: PHRF1 (RP)
# Outline: as §1
# [8] = system: KDM5B (3)
# Outline: as §1
# [9] = system: PHF8
# Outline: as §1
# [10] = system: MORC3 (CW)
# Outline: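 GST-tagged PHD readers, 0.5 μM, probed on a microarray of 293 synthetic histone peptides carrying single or combinatorial PTMs (optimized Petell protocol). Signals are averaged over 4 replicates and expressed as relative binding.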
# [11] = system: ING1
# Outline: as §1
# [12] = system: BPTF (PB)
# Outline: as §1
# [13] = system: ING4
# Outline: as §1
# [14] = system: KDM5A (3)
# Outline: as §1
# [15] = system: ING5
# Outline: as §1
# [16] = system: KDM5B (1)
# Outline: as §1
# [17] = system: RAG2
# Outline: as §1
# [18] = system: KDM7A
# Outline: as §1
# [19] = system: MLL5
# Outline: as §1
# [20] = system: PHF13
# Outline: as §1
# [21] = system: DIDO1
# Outline: as §1
# [22] = system: TRIM66 (PB)
# Outline: as §1
# [23] = system: TAF3
# Outline: as §1
# [24] = system: CHD5 (PPCC)
# Outline: as §1
# [25] = system: PHF23
# Outline: as §1
# [26] = system: PHF21A
# Outline: as §1
# [27] = system: CHD4 (PPCC)
# Outline: as §1
# [28] = system: ING2
# Outline: as §1
# [29] = system: CHD5 (PCC)
# Outline: as §1
# [30] = system: KDM5A (1)
# Outline: as §1
# [31] = system: KDM4C (TTP)
# Outline: as §1
# [32] = GST-tagged AIRE (PP), arrays performed twice, total replicate number n = 4
# [33] = GST-tagged ING3, arrays performed twice, total replicate number n = 4
# [34] = GST-tagged PHF2, arrays performed twice, total replicate number n = 4
# [35] = GST-tagged DPF2 (PPC2W2), arrays performed twice, total replicate number n = 4
# [36] = GST-tagged BAZ2B, arrays performed twice, total replicate number n = 4
# [37] = GST-tagged SP140L, arrays performed twice, total replicate number n = 4
# [38] = GST-tagged PHRF1 (RP), arrays performed twice, total replicate number n = 4
# [39] = GST-tagged KDM5B (3), arrays performed twice, total replicate number n = 4
# [40] = GST-tagged PHF8, arrays performed twice, total replicate number n = 4
# [41] = GST-tagged MORC3 (CW), arrays performed twice, total replicate number n = 4
# [42] = GST-tagged ING1, arrays performed twice, total replicate number n = 4
# [43] = GST-tagged BPTF (PB), arrays performed twice, total replicate number n = 4
# [44] = GST-tagged ING4, arrays performed twice, total replicate number n = 4
# [45] = GST-tagged KDM5A (3), arrays performed twice, total replicate number n = 4
# [46] = GST-tagged ING5, arrays performed twice, total replicate number n = 4
# [47] = GST-tagged KDM5B (1), arrays performed twice, total replicate number n = 4
# [48] = GST-tagged RAG2, arrays performed twice, total replicate number n = 4
# [49] = GST-tagged KDM7A, arrays performed twice, total replicate number n = 4
# [50] = GST-tagged MLL5, arrays performed twice, total replicate number n = 4
# [51] = GST-tagged PHF13, arrays performed twice, total replicate number n = 4
# [52] = GST-tagged DIDO1, arrays performed twice, total replicate number n = 4
# [53] = GST-tagged TRIM66 (PB), arrays performed twice, total replicate number n = 4
# [54] = GST-tagged TAF3, arrays performed twice, total replicate number n = 4
# [55] = GST-tagged CHD5 (PPCC), arrays performed twice, total replicate number n = 4
# [56] = GST-tagged PHF23, arrays performed twice, total replicate number n = 4
# [57] = GST-tagged PHF21A, arrays performed twice, total replicate number n = 4
# [58] = GST-tagged CHD4 (PPCC), arrays performed twice, total replicate number n = 4
# [59] = GST-tagged ING2, arrays performed twice, total replicate number n = 4
# [60] = GST-tagged CHD5 (PCC), arrays performed twice, total replicate number n = 4
# [61] = GST-tagged KDM5A (1), arrays performed twice, total replicate number n = 4
# [62] = GST-tagged KDM4C (TTP), arrays performed twice, total replicate number n = 4
# [63] = GST-tagged reader, histone peptide array, total n = 4
substance,measurement,setting,value
"H3K56ac (52-61): H3 52-61 (RRYQK(Ac)STELL; UniProt P68431 53-62, looked up, fragment)","Array Heatmap signal, AIRE (PP)",[1]; [32],0.4476
same,"Array Heatmap signal, ING3",[2]; [33],0.475
same,"Array Heatmap signal, PHF2",[3]; [34],0.5355
same,"Array Heatmap signal, DPF2 (PPC2W2)",[4]; [35],0.7093
same,"Array Heatmap signal, BAZ2B",[5]; [36],0.4578
same,"Array Heatmap signal, SP140L",[6]; [37],0.3649
same,"Array Heatmap signal, PHRF1 (RP)",[7]; [38],0.4575
same,"Array Heatmap signal, KDM5B (3)",[8]; [39],0.4628
same,"Array Heatmap signal, PHF8",[9]; [40],0.3512
same,"Array Heatmap signal, MORC3 (CW)",[10]; [41],0.3491
same,"Array Heatmap signal, ING1",[11]; [42],0.5577
same,"Array Heatmap signal, BPTF (PB)",[12]; [43],0.3515
same,"Array Heatmap signal, ING4",[13]; [44],0.4689
same,"Array Heatmap signal, KDM5A (3)",[14]; [45],0.4545
same,"Array Heatmap signal, ING5",[15]; [46],0.365
same,"Array Heatmap signal, KDM5B (1)",[16]; [47],0.5943
same,"Array Heatmap signal, RAG2",[17]; [48],0.2388
same,"Array Heatmap signal, KDM7A",[18]; [49],0.3406
same,"Array Heatmap signal, MLL5",[19]; [50],0.5378
same,"Array Heatmap signal, PHF13",[20]; [51],0.6129
same,"Array Heatmap signal, DIDO1",[21]; [52],0.7019
same,"Array Heatmap signal, TRIM66 (PB)",[22]; [53],0.5346
same,"Array Heatmap signal, TAF3",[23]; [54],0.2638
same,"Array Heatmap signal, CHD5 (PPCC)",[24]; [55],0.5505
same,"Array Heatmap signal, PHF23",[25]; [56],0.5106
same,"Array Heatmap signal, PHF21A",[26]; [57],0.4604
same,"Array Heatmap signal, CHD4 (PPCC)",[27]; [58],0.5636
same,"Array Heatmap signal, ING2",[28]; [59],0.6013
same,"Array Heatmap signal, CHD5 (PCC)",[29]; [60],0.7293
same,"Array Heatmap signal, KDM5A (1)",[30]; [61],0.4791
same,"Array Heatmap signal, KDM4C (TTP)",[31]; [62],0.4844
"H3K56me3 (52-61): H3 52-61 (RRYQK(Me3)STELL; UniProt P68431 53-62, looked up, fragment)","Array Heatmap signal, AIRE (PP)",[1]; [32],0.4132
same,"Array Heatmap signal, ING3",[2]; [33],0.4641
same,"Array Heatmap signal, PHF2",[3]; [34],0.4592
same,"Array Heatmap signal, DPF2 (PPC2W2)",[4]; [35],0.6082
same,"Array Heatmap signal, BAZ2B",[5]; [36],0.4232
same,"Array Heatmap signal, SP140L",[6]; [37],0.3549
same,"Array Heatmap signal, PHRF1 (RP)",[7]; [38],0.4158
same,"Array Heatmap signal, KDM5B (3)",[8]; [39],0.4529
same,"Array Heatmap signal, PHF8",[9]; [40],0.3607
same,"Array Heatmap signal, MORC3 (CW)",[10]; [41],0.3573
same,"Array Heatmap signal, ING1",[11]; [42],0.5013
same,"Array Heatmap signal, BPTF (PB)",[12]; [43],0.343
same,"Array Heatmap signal, ING4",[13]; [44],0.4217
same,"Array Heatmap signal, KDM5A (3)",[14]; [45],0.4564
same,"Array Heatmap signal, ING5",[15]; [46],0.3269
same,"Array Heatmap signal, KDM5B (1)",[16]; [47],0.6393
same,"Array Heatmap signal, RAG2",[17]; [48],0.2347
same,"Array Heatmap signal, KDM7A",[18]; [49],0.3588
same,"Array Heatmap signal, MLL5",[19]; [50],0.5095
same,"Array Heatmap signal, PHF13",[20]; [51],0.5794
same,"Array Heatmap signal, DIDO1",[21]; [52],0.6681
same,"Array Heatmap signal, TRIM66 (PB)",[22]; [53],0.5682
same,"Array Heatmap signal, TAF3",[23]; [54],0.2469
same,"Array Heatmap signal, CHD5 (PPCC)",[24]; [55],0.5162
same,"Array Heatmap signal, PHF23",[25]; [56],0.5132
same,"Array Heatmap signal, PHF21A",[26]; [57],0.4399
same,"Array Heatmap signal, CHD4 (PPCC)",[27]; [58],0.5342
same,"Array Heatmap signal, ING2",[28]; [59],0.5755
same,"Array Heatmap signal, CHD5 (PCC)",[29]; [60],0.7613
same,"Array Heatmap signal, KDM5A (1)",[30]; [61],0.4335
same,"Array Heatmap signal, KDM4C (TTP)",[31]; [62],0.4664
"H3K79me1: H3 74-84 (IAQDF[Lys(Me)]TDLRF; UniProt P68431 75-85, looked up, fragment) [Peptide H3K79me1]","Array Heatmap signal, AIRE (PP)",[1]; [63],0.5028
same,"Array Heatmap signal, ING3",[2]; [63],0.5268
same,"Array Heatmap signal, PHF2",[3]; [63],0.4403
same,"Array Heatmap signal, DPF2 (PPC2W2)",[4]; [63],0.6501
same,"Array Heatmap signal, BAZ2B",[5]; [63],0.4958
same,"Array Heatmap signal, SP140L",[6]; [63],0.3558
same,"Array Heatmap signal, PHRF1 (RP)",[7]; [63],0.4478
same,"Array Heatmap signal, KDM5B (3)",[8]; [63],0.5123
same,"Array Heatmap signal, PHF8",[9]; [63],0.4078
same,"Array Heatmap signal, MORC3 (CW)",[10]; [63],0.4301
same,"Array Heatmap signal, ING1",[11]; [63],0.5242
same,"Array Heatmap signal, BPTF (PB)",[12]; [63],0.3836
same,"Array Heatmap signal, ING4",[13]; [63],0.4724
same,"Array Heatmap signal, KDM5A (3)",[14]; [63],0.5745
same,"Array Heatmap signal, ING5",[15]; [63],0.4005
same,"Array Heatmap signal, KDM5B (1)",[16]; [63],0.6942
same,"Array Heatmap signal, RAG2",[17]; [63],0.2827
same,"Array Heatmap signal, KDM7A",[18]; [63],0.422
same,"Array Heatmap signal, MLL5",[19]; [63],0.6083
same,"Array Heatmap signal, PHF13",[20]; [63],0.6611
same,"Array Heatmap signal, DIDO1",[21]; [63],0.782
same,"Array Heatmap signal, TRIM66 (PB)",[22]; [63],0.6065
same,"Array Heatmap signal, TAF3",[23]; [63],0.2923
same,"Array Heatmap signal, CHD5 (PPCC)",[24]; [63],0.6031
same,"Array Heatmap signal, PHF23",[25]; [63],0.5609
same,"Array Heatmap signal, PHF21A",[26]; [63],0.4933
same,"Array Heatmap signal, CHD4 (PPCC)",[27]; [63],0.5797
same,"Array Heatmap signal, ING2",[28]; [63],0.6117
same,"Array Heatmap signal, CHD5 (PCC)",[29]; [63],0.8253
same,"Array Heatmap signal, KDM5A (1)",[30]; [63],0.5083
same,"Array Heatmap signal, KDM4C (TTP)",[31]; [63],0.5424
